Results taken from patent US11590116B2 (THERAVANCE BIOPHARMA R&D IP, LLC, priority 2019, dated 2023).

Legend:
[1] = target: T1, recombinant human ALK5 (TGF-βR1) protein (Homo sapiens, UniProt P36897); experiment: Biochemical ALK5 (TGF-βR1) assay to measure pKi (LANCE Ultra ULight kinase assay); conditions: apparent pKi from pIC50 by Cheng-Prusoff, read-out: ALK5 pKi (converted)
T1 construct: purchased Life Technologies PR9075A
T1 sequence (P36897 34-503): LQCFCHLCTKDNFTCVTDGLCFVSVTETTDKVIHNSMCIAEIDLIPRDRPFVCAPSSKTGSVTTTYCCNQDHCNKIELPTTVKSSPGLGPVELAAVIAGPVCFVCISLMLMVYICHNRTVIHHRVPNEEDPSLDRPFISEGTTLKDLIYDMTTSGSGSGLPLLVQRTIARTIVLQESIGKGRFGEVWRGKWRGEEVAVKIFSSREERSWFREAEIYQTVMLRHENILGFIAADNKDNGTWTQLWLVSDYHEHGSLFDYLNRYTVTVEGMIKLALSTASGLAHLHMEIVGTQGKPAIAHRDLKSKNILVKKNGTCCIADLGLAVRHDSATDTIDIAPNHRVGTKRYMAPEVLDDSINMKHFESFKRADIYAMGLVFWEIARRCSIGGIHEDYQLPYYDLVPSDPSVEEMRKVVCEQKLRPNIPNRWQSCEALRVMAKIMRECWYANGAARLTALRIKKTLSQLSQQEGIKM
Method in brief: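 Compounds (10 μM to 25 pM) were preincubated 60 min at room temperature with enzyme, then reactions were started with ATP (125 μM stock, 5× final) and run 60 min at 37 °C. EDTA-containing Eu-anti-phospho-Topo IIα (Thr1342) antibody stopped the reaction; TR-FRET read at 665 nm. pIC50 from 4-parameter fit, converted to pKi via Cheng-Prusoff.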

[2] = system: TGF-β-stimulated SMAD3 phosphorylation in BEAS-2B cells; experiment: Cellular ALK5 potency assay, inhibition of TGF-β stimulated pSMAD3 formation in BEAS-2B cells; type: cell-based; conditions: Homo sapiens; inhibition of TGF-β stimulated pSMAD3 formation, BEAS-2B cells; read-out: BEAS2B pIC50 (converted)
Method in brief: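 Cells seeded overnight; rinse with supplemented HBSS; compound 1 h at 37 °C; TGF-β 10 ng/mL final, 30 min; lyse; AlphaLISA acceptor and detector beads 2 h apart, read next day. Potency expressed as pIC50.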

SMILES	Ki [1] [nM]	IC50 [2] [nM]
Cc1cccc(-c2n[nH]cc2-c2ccc3ncc(CN4CC(N5CCOCC5)C4)cc3n2)n1 [Compound 495, 4-[1-[[6-[3-(6-methyl-2-pyridyl)-1H-pyrazol-4-yl]-1,5-naphthyridin-3-yl]methyl]azetidin-3-yl]morpholine]	3.98 to 31.6	200 to 1260
Cc1cccc(-c2[nH]cnc2-c2ccc3ncc(NCCC4CCNCC4)cc3c2)n1 [Compound 496, 6-[5-(6-methyl-2-pyridyl)-1H-imidazol-4-yl]-N-[2-(4-piperidyl)ethyl]quinolin-3-amine]	0.0398 to 0.316	25.1 to 158
CNCCn1cc(-c2cnc3ccc(-c4c(-c5cccc(C)n5)nnn4Cc4ccccc4)cc3c2)cn1 [Compound 498, 2-[4-[6-[3-benzyl-5-(6-methyl-2-pyridyl)triazol-4-yl]-3-quinolyl]pyrazol-1-yl]-N-methyl-ethanamine]	0.0398 to 0.316	25.1 to 158
CCOC(=O)CCc1cnc2ccc(-c3c[nH]nc3-c3cccc(C)n3)nc2c1 [Compound 499, ethyl 3-[6-[3-(6-methyl-2-pyridyl)-1H-pyrazol-4-yl]-1,5-naphthyridin-3-yl]propanoate]	0.0398 to 0.316	25.1 to 158
Cc1cccc(-c2[nH]cnc2-c2ccc3ncc(N4CCNC(CC(=O)O)C4)cc3c2)n1 (centres unmarked) [Compound 500, 2-(4-(6-(5-(6-methylpyridin-2-yl)-1H-imidazol-4-yl)quinolin-3-yl)piperazin-2-yl)acetic acid]	0.0398 to 0.316	1580 to 10000
CNC1CCN(c2cnc3ccc(-c4c(-c5cccc(C)n5)nc5ccccn45)nc3c2)CC1 [Compound 501, N-methyl-1-[6-[2-(6-methyl-2-pyridyl)imidazo[1,2-a]pyridin-3-yl]-1,5-naphthyridin-3-yl]piperidin-4-amine]	0.0398 to 0.316	25.1 to 158
Cc1cccc(-c2n[nH]cc2-c2ccc3ncc(C4=CCC(NCc5ccccc5)CC4)cc3n2)n1 (centres unmarked) [Compound 502, N-benzyl-4-[6-[3-(6-methyl-2-pyridyl)-1H-pyrazol-4-yl]-1,5-naphthyridin-3-yl]cyclohex-3-en-1-amine]	< 0.0316	25.1 to 158
Cc1nc(-c2n[nH]cc2-c2ccc3ncc(-c4c(C)nn5c4NCCC5)cc3n2)ccc1F [Compound 504, 2-[3-(5-fluoro-6-methyl-2-pyridyl)-1H-pyrazol-4-yl]-7-(2-methyl-4,5,6,7-tetrahydropyrazolo[1,5-a]pyrimidin-3-yl)-1,5-naphthyridine]	0.398 to 3.16	25.1 to 158
Cc1cccc(-c2n[nH]cc2-c2ccc3ncc(N(C)CCCN4CCOCC4)cc3n2)n1 [Compound 506, N-methyl-6-[3-(6-methyl-2-pyridyl)-1H-pyrazol-4-yl]-N-(3-morpholinopropyl)-1,5-naphthyridin-3-amine]	0.0398 to 0.316	25.1 to 158
CNc1cnc2ccc(-c3c(-c4cccc(C)n4)n[nH]c3OC)nc2c1 [Compound 507, 6-[5-methoxy-3-(6-methyl-2-pyridyl)-1H-pyrazol-4-yl]-N-methyl-1,5-naphthyridin-3-amine]	0.398 to 3.16	200 to 1260
CCN1CCN(CCNc2cnc3ccc(-c4c[nH]nc4-c4cccc(C)n4)nc3c2)CC1 [Compound 508, N-[2-(4-ethylpiperazin-1-yl)ethyl]-6-[3-(6-methyl-2-pyridyl)-1H-pyrazol-4-yl]-1,5-naphthyridin-3-amine]	0.0398 to 0.316	25.1 to 158
Cc1nc(-c2n[nH]cc2-c2ccc3ncc(N4CCN(CCO)CC4)cc3n2)ccc1F [Compound 509, 2-[4-[6-[3-(5-fluoro-6-methyl-2-pyridyl)-1H-pyrazol-4-yl]-1,5-naphthyridin-3-yl]piperazin-1-yl]ethanol]	< 0.0316	25.1 to 158
Cc1cccc(-c2[nH]cnc2-c2ccc3ncc(Nc4ccc(N5CCN(Cc6ccccc6)CC5)cn4)cc3c2)n1 [Compound 510, N-[5-(4-benzylpiperazin-1-yl)-2-pyridyl]-6-[5-(6-methyl-2-pyridyl)-1H-imidazol-4-yl]quinolin-3-amine]	0.398 to 3.16	25.1 to 158
Cc1cccc(-c2nc3sccn3c2-c2ccc3ncc(Br)cc3n2)n1 [Compound 511, 5-(7-Bromo-1,5-naphthyridin-2-yl)-6-(6-methylpyridin-2-yl)imidazo[2,1-b]thiazole]	0.398 to 3.16	25.1 to 158
CNCCn1cc(-c2cnc3ccc(-c4c(-c5cccc(C)n5)n[nH]c4N)nc3c2)cn1 [Compound 512, 4-[7-[1-[2-(methylamino)ethyl]pyrazol-4-yl]-1,5-naphthyridin-2-yl]-3-(6-methyl-2-pyridyl)-1H-pyrazol-5-amine]	0.0398 to 0.316	200 to 1260
Cc1nc(-c2n[nH]cc2-c2ccc3ncc(N4CCC(N(C)C)CC4)cc3n2)ccc1F [Compound 514, 1-[6-[3-(5-fluoro-6-methyl-2-pyridyl)-1H-pyrazol-4-yl]-1,5-naphthyridin-3-yl]-N,N-dimethyl-piperidin-4-amine]	0.0398 to 0.316	25.1 to 158
Cc1nc(-c2n[nH]cc2-c2ccc3ncc(-c4[nH]nc5c4CCN5)cc3n2)ccc1F [Compound 515, 2-[3-(5-fluoro-6-methyl-2-pyridyl)-1H-pyrazol-4-yl]-7-(2,4,5,6-tetrahydropyrrolo[2,3-c]pyrazol-3-yl)-1,5-naphthyridine]	< 0.0316	25.1 to 158
Cc1cccc(-c2n[nH]cc2-c2ccc3ncc(NCCN4C[C@@H](C)N[C@@H](C)C4)cc3n2)n1 [Compound 516, 6-[3-(6-methyl-2-pyridyl)-1H-pyrazol-4-yl]-N-[2-[rac-(3R,5S)-3,5-dimethylpiperazin-1-yl]ethyl]-1,5-naphthyridin-3-amine]	0.0398 to 0.316	25.1 to 158
Cc1nc(-c2n[nH]cc2-c2ccc3ncc(-c4cnn(C[C@H]5C[C@@H](N)C5)c4)cc3n2)ccc1F [Compound 517, 3-[[4-[6-[3-(5-fluoro-6-methyl-2-pyridyl)-1H-pyrazol-4-yl]-1,5-naphthyridin-3-yl]pyrazol-1-yl]methyl]cyclobutanamine]	0.0398 to 0.316	25.1 to 158
Cc1cccc(-c2n[nH]cc2-c2ccc3ncc(-c4ccccn4)cc3n2)n1 [Compound 518, 2-[3-(6-methyl-2-pyridyl)-1H-pyrazol-4-yl]-7-(2-pyridyl)-1,5-naphthyridine]	0.0398 to 0.316	< 20
Cc1cccc(-c2[nH]cnc2-c2ccc3ncc(Nc4ccc(N5CCNCC5)cn4)cc3c2)n1 [Compound 519, 6-[5-(6-methyl-2-pyridyl)-1H-imidazol-4-yl]-N-(5-piperazin-1-yl-2-pyridyl)quinolin-3-amine]	0.0398 to 0.316	200 to 1260
Cc1nc(-c2n[nH]cc2-c2ccc3ncc(-c4nnn5c4NCC5)cc3n2)ccc1F [Compound 520, 7-(5,6-dihydro-4H-imidazo[1,2-c]triazol-3-yl)-2-[3-(5-fluoro-6-methyl-2-pyridyl)-1H-pyrazol-4-yl]-1,5-naphthyridine]	< 0.0316	25.1 to 158
Cc1cccc(-c2[nH]nnc2-c2ccc3ncc(-c4c[nH]nc4C(F)(F)F)cc3n2)n1 [Compound 521, 2-[5-(6-methyl-2-pyridyl)-1H-triazol-4-yl]-7-[3-(trifluoromethyl)-1H-pyrazol-4-yl]-1,5-naphthyridine]	0.398 to 3.16	25.1 to 158
Cc1cccc(-c2[nH]cnc2-c2ccc3ncc(-c4cccc(C(=O)O[C@H]5CCN(C)C5)c4)cc3c2)n1 [Compound 522, [(3S)-1-methylpyrrolidin-3-yl] 3-[6-[5-(6-methyl-2-pyridyl)-1H-imidazol-4-yl]-3-quinolyl]benzoate]	0.0398 to 0.316	25.1 to 158
Cc1cccc(-c2[nH]ncc2-c2ccc3ncc(C(=O)OC4CCN(C)C4)cc3n2)n1 (centres unmarked) [Compound 523, (1-methylpyrrolidin-3-yl) 6-[5-(6-methyl-2-pyridyl)-1H-pyrazol-4-yl]-1,5-naphthyridine-3-carboxylate]	0.0398 to 0.316	25.1 to 158
Cc1cccc(-c2nc3ccccn3c2-c2ccc3ncc(-c4cnc5n4CCNC5)cc3n2)n1 [Compound 524, 2-[2-(6-methyl-2-pyridyl)imidazo[1,2-a]pyridin-3-yl]-7-(5,6,7,8-tetrahydroimidazo[1,2-a]pyrazin-3-yl)-1,5-naphthyridine]	0.0398 to 0.316	25.1 to 158
Cc1cccc(-c2n[nH]cc2-c2ccc3ncc(-c4cnn5c4NCCC5)cc3n2)n1 [Compound 525, 2-[3-(6-methyl-2-pyridyl)-1H-pyrazol-4-yl]-7-(4,5,6,7-tetrahydropyrazolo[1,5-a]pyrimidin-3-yl)-1,5-naphthyridine]	< 0.0316	< 20
Cc1nc(-c2n[nH]cc2-c2ccc3ncc(NCCN4CCCC4(C)C)cc3n2)ccc1F [Compound 526, N-(2-(2,2-dimethylpyrrolidin-1-yl)ethyl)-6-(3-(5-fluoro-6-methylpyridin-2-yl)-1H-pyrazol-4-yl)-1,5-naphthyridin-3-amine]	< 0.0316	25.1 to 158
